Test results taken from patent US10513519B2, “Solid forms of (1S,4S)-4-(2-(((3S,4R)-3-fluorotetrahydro-2H-pyran-4-yl)amino)-8-((2,4,6-trichlorophenyl)amino)-9H-purin-9-yl)-1-methylcyclohexane-1-carboxamide and methods of their use” (Signal Pharmaceuticals, LLC, priority 2016, dated 2019).
Like-named read-outs stand apart in the source and are kept apart here.

How the values were obtained:
Format in all cases: cell-based
[1] = system: pRSK1 S380 in LOX-IMVI cells; experiment: pRSK1 S380 Mesoscale assay in LOX-IMVI
Description: Cancer cells were seeded at a density of 25,000 cells per well in 96-well tissue culture plates and incubated at 37° C. in a CO2 incubator overnight. After treatment with Compound 1 at 37° C. for 2 h, the cells were lysed with Mesoscale lysis buffer and pRSK S380 levels in each lysate were measured via Mesoscale ELISA technology.

[2] = system: BRAF mutant and beta-catenin mutant or active cancer cell lines; experiment: Anti-proliferative and apoptotic activity in BRAF mutant and beta-catenin mutant or active cancer cell lines; details: for IC50: read-out: Proliferation IC50
Description: Anti-proliferative and apoptotic activity in BRAF mutant and beta-catenin mutant or active cancer cell lines. The mutation status of BRAF, CTNNB1, KRAS, and EGFR in five cell lines evaluated was based on public data (COSMIC and CCLE) and confirmed internally. β-catenin status was evaluated using TOP Flash reporter system by transient transfection. A cell line was defined as β-catenin active if a ratio of Top Flash reporter over Fop Flash reporter is greater than 2. N/A: Not available. Transfection efficiency in Colo 205 (BRAF V600E) was too low to access its β-catenin activity using this approach. Antiproliferative and apoptotic activity of Compound 1 in the five cell lines were measured as described above.

SW48 (colo) cells = experiment: Long term colony assay, SW48; details: SW48, up to 8 weeks
Description: Compound 1 was assessed for its ability to inhibit the colony formation of cancer cells via a long-term colony forming assay. Cells and compounds were added to 96-well plates and were monitored for up to 8 weeks for the formation of colonies. Compound and media were replenished every 1 week throughout the course of the assay. Colony formation was detected via imaging at 4× on the IncuCyte ZOOM System. […] (FIGS. 210A-210D).

[3] = system: TEAD reporter (8×GTIIC-luciferase) in W138 VA13 cells; experiment: TEAD reporter assay; details: cumulative data of three experiments
Description: TEAD reporter activity was analyzed using W138 VA13 cells stably expressing a YAP/TAZ responsive synthetic promoter driving luciferase expression (8×GTIIC-luciferase). 10,000 cells per well were seeded on a white-walled 96-well plate and left overnight. After 16-20 hours, cells were treated with compound and TEAD reporter activity was measured 24 or 72 hours later using Bright Glo luciferase assay (Promega) according to the manufacturer's instructions. This assay was performed 3 times for Compound 1 and twice for Trametinib.

cancer cell lines = experiment: Multiplexed cytotoxicity assay: apoptosis (activated caspase-3 induction); details: KLE, Female GU, Uterus; 72 h
Description: Cells are grown in RPMI1640, 10% FBS, 2 mM L-alanyl-L-Glutamine, 1 mM Na pyruvate or a special medium in a humidified atmosphere of 5% CO2 at 37° C. Cells are seeded into 384-well plates and incubated in a humidified atmosphere of 5% CO2 at 37° C. Compounds are added 24 h post cell seeding. At the same time, a time zero untreated cell plate is generated. After a 72 hour incubation period, cells are fixed and stained with fluorescently labeled antibodies and nuclear dye to allow visualization of nuclei, apoptotic cells and mitotic cells. Apoptotic cells are detected using an anti-active caspase-3 antibody. Mitotic cells are detected using an anti phospho-histone-3 antibody. […] Automated fluorescence microscopy was carried out using a Molecular Devices ImageXpress Micro XL high-content imager, and images are collected with a 4× objective. […]
In another experiment, cells were grown in RPMI1640, 10% FBS, 2 mM L-alanyl-L-Glutamine, 1 mM Na pyruvate or a special medium in a humidified atmosphere of 5% CO2 at 37° C. […] Apoptotic cells were detected using an anti-active caspase-3 antibody. Mitotic cells were detected using an anti phospho-histone-3 antibody. […] Automated fluorescence microscopy was carried out using a Molecular Devices ImageXpress Micro XL high-content imager, and images were collected with a 4× objective. […]

[4] = system: WI38 VA13 cells expressing 8×GTIIC-luciferase; experiment: Viability assay (Cell Titer Fluor); details: 24 or 72 hours, three assays
Description: In parallel 10,000 WI38 VA13 cells expressing 8×GTIIC-luciferase were seeded in each well of a black-walled 96-well plate. After 16-20 hours cells were treated with compound for 24 or 72 hours. At this time the serum and compound containing media was removed and replaced with 100 μl serum free media and 100 μl Cell Titer Fluor (Promega). The plate was incubated for 2 hours at 37° C. before reading fluorescence output. This assay is based on measurement of live-cell protease activity. The viability assay was performed to confirm that any effects of compounds on TEAD reporter were not the result of compound effects on viability. This assay was performed 3 times for Compound 1 and twice for Trametinib.

[5] = AGS, Gastric, CTNNB1 (G43E), KRAS (G12D), β-catenin active

## C[C@]1(C(N)=O)CC[C@@H](n2c(Nc3c(Cl)cc(Cl)cc3Cl)nc3cnc(N[C@@H]4CCOC[C@H]4F)nc32)CC1 [Compound 1, cis-4-[2-{[(3S,4R)-3-fluorooxan-4-yl]amino}-8-(2,4,6-trichloroanilino)-9H-purin-9-yl]-1-methylcyclohexane-1-carboxamide]
[1]; 2 h
  pRSK1 inhibition: potently inhibited pRSK1
[1]; Homo sapiens, 2 h treatment, n = 3
  IC50: 38 nM
[2]
  proliferation and apoptosis in BRAF mutant and beta-catenin mutant or active cancer cell lines: potently inhibits proliferation and induces apoptosis
[2]; [5]
  Apoptosis induction CalX2: 0.004 ± 0.002 µM
  IC50: 28 nM
[2]; Homo sapiens, Colo 205, CRC, BRAF (V600E)
  IC50: 36 nM
[2]; Homo sapiens, Hep3B, HCC, β-catenin active
  IC50: 14 nM
[2]; Homo sapiens, LOX-IMVI, Melanoma, BRAF (V600E), β-catenin inactive
  IC50: 25 nM
[2]; Homo sapiens, SW48, CRC, CTNNB1 (S33Y), EGFR (G179S), β-catenin active
  IC50: 9 nM
SW48 (colo) cells
  inhibition of colony formation vs trametinib and GDC0994: greater levels of inhibition than seen with treatment with MEK inhibitors or ERK inhibitors
[3]; 24 hour assay
  IC50: > 10000 nM
[3]; 72 hour assay
  IC50: 1850 nM
Cancer cell lines
  CalX2: 10 µM
[4]
  viability: not reproducibly affected
